Assay type in all cases: cell-based
One experiment has as its system PC3 (prostate cancer). Description: MTT cytotoxicity assay, PC3. To be noted: Homo sapiens.
The next experiment deals with DU-145 (prostate cancer). Nature of the experiment: MTT cytotoxicity assay, DU-145. To be noted: Homo sapiens. On the procedure: The cytotoxicity assay of synthetic Phorboxazole A and various derivative compounds against human tumor cells was performed using the MTT (3-[4,5-dimethylthiazol-2-yl]-2,5-diphenyl tetrazolium bromide) assay (Boehringer Mannheim Corp., Indianapolis, Ind.). Briefly, exponentially growing brain tumor cells were seeded into a 96-well plate at a density of 2.5×10^4 cells/well and incubated for 36 hours at 37° C. prior to drug exposure. On the day of treatment, culture medium was carefully aspirated from the wells and replaced with fresh medium containing the various phorboxazole A derivative compounds as well as the tyrosine kinase inhibitory isoflavone genistein (GEN) at concentrations ranging from 0.1 to 250 μM. Triplicate wells were used for each treatment.
The cells were incubated with the various compounds for 24-36 hours at 37° C. in a humidified 5% CO2 atmosphere. To each well, 10 μl of MTT (0.5 mg/ml final concentration) was added and the plates were incubated at 37° C. for 4 hours to allow MTT to form formazan crystals by reacting with metabolically active cells. […] The absorbance of each well was measured in a microplate reader (Labsystems) at 540 nm and a reference wavelength of 690 nm. […] The percent survival was calculated using the formula: [formula]
The IC50 values were calculated by non-linear regression analysis. […]

A further experiment has as its system ARH77 (multiple myeloma). Nature of the experiment: MTT cytotoxicity assay, ARH77. To be noted: Homo sapiens, ARH-77. Background: Tetrazolium dyes change colour on reduction, which living cells bring about.
Experiment [1] deals with human breast cancer cell line BT-20. Nature of the experiment: In situ detection of apoptosis (nick-end-labeling, confocal microscopy). The conditions noted are these: final concentration of 100 μM, 24 hours. On the procedure: The synthetic Phorboxazole A and the synthetic analogs were also assayed for apoptosis-inducing activity. Assay for apoptosis was performed by the in situ nick-end-labeling method using an ApopTag in situ detection kit (Oncor, Gaithersburg, Md.) according to the manufacturer's reconmmendations. Immunofluorescence was used to examine the morphologic features of human breast cancer cell line BT-20 (American Type Culture Collection Rockville, Md.) treated with the novel phorboxazole A derivatives of the present invention.
Cells were trypsinized from rapidly growing tissue culture flasks and seeded onto sterile 22 mm^2 coverslips in 6-well culture plates. Cells on coverslips were returned to the incubator for 24 hours prior to treatment. The phorboxazole A derivatives were added to the cells from a stock solution made in DMSO to a final concentration of 100 μM. Final DMSO concentration were kept at 0.1% in both test samples and controls. Cells were returned to a 37° C. incubation for 24 hours before further processing. At 24 hours, coverslips were fixed in −20° C. methanol for 15 minutes followed by a 15 minute incubation in phosphate buffered saline +0.1% Triton X-100 (PBS-Tx). Coverslips were then incubated with a monoclonal antibody against α-tubulin (Sigma Chemical Co., St. Louis, Mo.) at a dilution of 1:1000 for 40 minutes in a humidified chamber at 37° C. Coverslips were washed for 15 minutes in PBS-Tx followed by a 40 minute incubation with goat anti-mouse IgG antibody conjugated to FITC (Amersham Corp., Arlington Heights, Ill.). The coverslips were again rinsed in PBS-Tx and incubated with 5 μM TOTO-3 (Molecular Probes, Eugene, Oreg.) for 20 minutes to label the nuclear DNA. Coverslips were immediately inverted onto slides in Vectashield (Vector Labs, Burlingame) to prevent photobleaching, sealed with nail varnish and stored at 4° C.
Slides were examined using a Bio-Rad MRC-1024 Laser Scanning Confocal Microscope mounted on a Nikon Eclipse E800 upright microscope with high numerical aperture objectives. […]

Another experiment relates to U373 glioblastoma cells. Nature of the experiment: Matrigel invasion assay (Boyden chambers). To be noted: Homo sapiens, U373 MG; cells treated 72 hours; invasion 48 hours; read-out: IC50, inhibition of glioblastoma cell invasion through Matrigel. On the procedure:
The in vitro invasiveness of human brain tumor cell lines U-373 MG and breast cancer cell lines BT-20 and MDA-MB-231 cells was assayed using a previously published method which employs Matrigel™-coated Costar 24-well transwell cell culture chambers (“Boyden chambers”) with 8.0-μm-pore polycarbonate filter inserts (Albini,et.al, 1987, Cancer Res., 47:3239-3245). The chamber filters were coated with 50 μg/ml of Matrigel™ matrix, incubated overnight at room temperature under a laminar flow hood and stored at 4° C. Matrigel™ matrix is made up of several components of the extracellular matrix (ECM), including collagen, laminin and proteo-glycans. The cancer cells were incubated with 500, 250, 125, 62.5, and 31.2 nM concentrations of the synthetic Phorboxazole compounds for 72 hours.
On the day of the experiment, the coated inserts were rehydrated with 0.5 ml serum-free DMEM containing 0.1% bovine serum albumin for 1-2 hours. The treated cells were trypsinized, washed twice with serum-free DMEM containing BSA, counted and resuspended at 1×10^5 cells/ml. A 0.5 ml cell suspension containing 5×10^4 cells in a serum-free DMEM was added to the Matrigel™-coated and rehydrated filter inserts. A volume of 750 μl of NIH fibroblast conditioned medium was placed as a chemoattractant in 24-well plates and the inserts were placed in wells and incubated at 37° C. for 48 hours.
The invasive cells that migrated to the lower side of the filter were fixed, stained with Hema-3 solutions and counted under microscope. Five to 10 random fields per filter were counted to determine the mean (±SE) values for the invasive fraction. The invasive fractions of cells treated with phorboxazole A derivatives were compared to those of DMSO treated control cells and the percent inhibition of invasiveness was determined using the formula: [formula]
Each treatment condition was evaluated in duplicate in 3 independent experiments. IC50 values were calculated by non-linear regression analysis using Graphpad Prisin Software Version 2.0 (Graphpad Software Inc., San Diego, Calif.).

Each structure is given as a SMILES string.

In the case of `C=C1C[C@@H]2C[C@@H]3C[C@@H](O)C[C@@H](O3)c3coc(n3)/C=C/C[C@H]3O[C@@H](/C(C)=C/c4coc(C[C@]5(O)C[C@H](OC)C[C@H]([C@H](O)/C=C(C)/C=C/[C@@H](C/C=C/Br)OC)O5)n4)[C@H](C)[C@@H](OC(=O)/C=C\C[C@@H](C1)O2)[C@H]3C` [Compound 1, Phorboxazole A], the IC50 in the experiment on PC3 (prostate cancer) was 14.2 nM; with DU-145 (prostate cancer), 15 nM; with ARH77 (multiple myeloma), 7.5 nM; in the experiment on U373 glioblastoma cells it was less than 31.2 nM. Besides, the Apoptosis-inducing activity result in experiment [1] was “apoptotic activity”.

A word on the IC50: it is the point on the concentration scale where inhibition reaches its midpoint.

Values taken from patent publication US6797721B2, “Phorboxazole derivatives for treating cancer” (Parker Hughes Institute, priority 1999, dated 2004).
